Assay results reported in US20240415123A1, “METHODS AND COMPOSITIONS FOR ICAFOLIN HERBICIDE TOLERANCE” (Monsanto Technology LLC, priority 2023, published 2024).

Key:
Format in all cases: in vivo
[1] = test system: transgenic soybean plants expressing CYP12_var; assay: Icafolin herbicide injury rating, greenhouse spray, CYP12_var soybean; details: for Percent Injury 15 DAT / Percent injury 21 DAT: Experiment 1
Excerpt: (§1) The codon-optimized polynucleotide sequences were placed into plant transformation cassettes with each CYP coding sequence operably-linked to a constitutive expression element comprising the promoter, leader, and intron sequence of Arabidopsis thaliana Ubiquitin 3 (SEQ ID NO:14) and a Medicago truncatula photosystem II terminator (SEQ ID NO:15). Four plant transformation vectors were created, each comprising one of the CYP gene expression cassettes and an aadA selectable marker expression cassette, conferring resistance to the antibiotics spectinomycin and streptomycin. Soybean cultivar AG3555 seed-derived embryo explants were transformed with the vectors by Agrobacterium-mediated transformation using known methods in the art, and transformed plantlets were selected based on growth in the presence of spectinomycin. Plantlets comprising single copy events were grown in the greenhouse to produce R1 seeds. R1 plants were subsequently selected for homozygous CYP-positive plants, either by molecular analysis of young leaf tissue or by seed chipping prior to planting. These selected plants were then screened for tolerance to icafolin herbicide.
(§2) Herbicide tolerance screens were performed by selecting R1 plants at roughly the V2-V3 developmental stage and applying icafolin herbicide with a track sprayer under standard greenhouse conditions. Two independent transgenic events per transgene were screened. The herbicide was formulated with 1% v/v methylated seed oil (MSO) and 2.5% v/v ammonium sulfate (AMS) and sprayed with a XR nozzle at 15 gallons per […] (GPA) to mimic field conditions. The icafolin used in this Example and in the experiments described in Examples 2-4 was a mixture of the methyl ester forms of the 2R, 4R and 2S, 4S isomers. The icafolin formulation was sprayed at two rates: 5 g active ingredient (ai)/hectare (ha) and 25 g ai/ha. The herbicide treated soybean plants were returned to the greenhouse following spray application and allowed to grow under standard conditions. Plants were rated for herbicide injury at approximately 14 and 21 days after treatment (DAT). Untreated transgenic plants and control (wild-type) plants were used for phenotypic comparison. The herbicide injury rating accounts for plant malformation, stunting, chlorosis, necrosis, and plant death relative to the untreated control plants. An injury rating of approximately 90% or above indicates nearly complete plant death. An injury rating of less than 30% indicates partial tolerance, and an injury rating of less than 20% indicates good tolerance. Injury ratings were collected and analyzed, and photographs of representative plants were taken.

[2] = test system: transgenic soybean plants expressing CYP15; assay: Icafolin herbicide injury rating, greenhouse spray, CYP15 soybean
Excerpt: as §1, §2

[3] = test system: transgenic soybean plants expressing CYP21; assay: Icafolin herbicide injury rating, greenhouse spray, CYP21 soybean; details: for Percent Injury 14 DAT / Percent injury 21 DAT: Table 8; for Percent Injury 14 DAT / injury: 14 DAT
Excerpt: The codon-optimized genes were placed into plant transformation cassettes with each CYP coding sequence operably linked to a constitutive expression element comprising the promoter, leader, and intron of Arabidopsis thaliana Ubiquitin 3 (SEQ ID NO:14) and a Medicago truncatula photosystem II terminator (SEQ ID NO:15). Two plant transformation vectors were created, each comprising one of the CYP gene cassettes and an aadA selectable marker expression cassette, conferring resistance to the antibiotics spectinomycin and streptomycin. Soybean cultivar AG3555 seed-derived embryo explants were transformed with the vectors described above by Agrobacterium-mediated transformation using known methods in the art, and positive-transformed plantlets were selected based on growth in the presence of spectinomycin. Plantlets comprising single copy events were grown in the greenhouse to produce R1 seeds. R1 plants were subsequently selected for the homozygous CYP positive plants, either by molecular analysis of young leaf tissue or by seed chipping prior to planting. These selected plants were then screened for tolerance to the icafolin herbicide.
Herbicide tolerance screening was performed by selecting R1 plants at roughly the V2-V3 developmental stage and applying the icafolin herbicide in a track sprayer under standard greenhouse conditions. Two independent transgenic events per transgene were selected for screening. The herbicide was formulated with 1% v/v methylated seed oil (MSO) and 2.5% v/v ammonium sulfate (AMS) and sprayed with a XR nozzle at 15 gallons per […] (GPA) to mimic field conditions. The icafolin formulation was sprayed at two rates: 5 g active ingredient (ai)/hectare (ha) and 25 g ai/ha. The treated soybean plants were returned to the greenhouse following spray application and allowed to grow under standard conditions. The plants were rated for herbicide injury at approximately 14 and 21 days after treatment (DAT). Untreated transgenic plants and control (wild-type) plants were used for phenotypic comparison. The herbicide injury rating accounts for plant malformation, stunting, chlorosis, necrosis, and plant death relative to the untreated control plants. An injury rating of approximately 90% or above indicates nearly complete plant death. An injury rating of less than 30% indicates partial tolerance and an injury rating of less than 20% indicates good tolerance. Injury ratings were collected and analyzed, and photographs of representative plants were taken.

[4] = test system: Soy transgenic plants expressing CYP15; assay: Field trial icafolin injury rating, CYP15 soybean; details: for Percent Plant Injury (21 DAT): averaged across repetitions, field locations and events
Description: Soy transgenic plants expressing CYP14 or CYP15 were assayed in small scale field trails across nine sites in the United States for tolerance to icafolin spray applications. The plants were grown in field plots and sprayed during the early vegetative stages when plants were roughly at the V3 stage. The icafolin formulation was sprayed at either a 5 g ai/ha or 25 g ai/ha application rate with 2 treatment replications per location. The plants were rated for herbicide injury at 7, 14, 21, and 28 days after treatment (DAT). A total of 12 events for CYP14 and 11 events for CYP15 were tested. An event transformed with a non-herbicide tolerance construct served as a negative control to provide a comparison for injury.

[5] = CYP12_var Event 909, 5 g ai/ha icafolin
[6] = CYP12_var Event 909, 25 g ai/ha icafolin
[7] = CYP12_var Event 932, 5 g ai/ha icafolin
[8] = CYP12_var Event 932, 25 g ai/ha icafolin
[9] = CYP15 Event 618, 5 g ai/ha icafolin, Experiment 2
[10] = CYP15 Event 618, 25 g ai/ha icafolin, Experiment 2
[11] = CYP15 Event 670, 5 g ai/ha icafolin, Experiment 2
[12] = CYP15 Event 670, 25 g ai/ha icafolin, Experiment 2
[13] = CYP15 Event 784, 5 g ai/ha icafolin, Experiment 2
[14] = CYP15 Event 784, 5 g ai/ha icafolin, Experiment 1
[15] = CYP15 Event 784, 25 g ai/ha icafolin, Experiment 2
[16] = CYP15 Event 784, 25 g ai/ha icafolin, Experiment 1
[17] = CYP15 Event 794, 5 g ai/ha icafolin, Experiment 2
[18] = CYP15 Event 794, 5 g ai/ha icafolin, Experiment 1
[19] = CYP15 Event 794, 25 g ai/ha icafolin, Experiment 2
[20] = CYP15 Event 794, 25 g ai/ha icafolin, Experiment 1
[21] = CYP21 Event 344, 5 g ai/ha icafolin
[22] = CYP21 Event 344, 25 g ai/ha icafolin
[23] = CYP21 Event 502, 5 g ai/ha icafolin
[24] = CYP21 Event 502, 25 g ai/ha icafolin

## C=C[C@]1(C(=O)N[C@H]2CO[C@@H](C(=O)OC)C2)CC(c2cc(F)cc(F)c2)=NO1 (relative stereo) [icafolin, methyl(2R*,4R*)-4-[[(5S)-3-(3,5-difluorophenyl)-5-vinyl-4H-isoxazole-5-carbonyl]amino]tetrahydrofuran-2-carboxylate]
[1]; [5]
  Percent Injury 15 DAT: 39%
  Percent injury 21 DAT: 50%
[1]; [6]
  Percent Injury 15 DAT: 57%
  Percent injury 21 DAT: 77%
[1]; [7]
  Percent Injury 15 DAT: 42%
  Percent injury 21 DAT: 47%
[1]; [8]
  Percent Injury 15 DAT: 69%
  Percent injury 21 DAT: 80%
[1]; in vivo
  Tolerance to icafolin: did not show any noticeable tolerance
[2]; [9]
  Percent Injury 14 DAT: 23%
  Percent injury 21 DAT: 12%
[2]; [10]
  Percent Injury 14 DAT: 60%
  Percent injury 21 DAT: 32%
[2]; [11]
  Percent Injury 14 DAT: 10%
  Percent injury 21 DAT: 15%
[2]; [12]
  Percent Injury 14 DAT: 52%
  Percent injury 21 DAT: 34%
[2]; [13]
  Percent Injury 14 DAT: 8%
  Percent injury 21 DAT: 11%
[2]; [14]
  Percent Injury 15 DAT: 8%
  Percent injury 21 DAT: 3%
[2]; [15]
  Percent Injury 14 DAT: 78%
  Percent injury 21 DAT: 44%
[2]; [16]
  Percent Injury 15 DAT: 28%
  Percent injury 21 DAT: 32%
[2]; [17]
  Percent Injury 14 DAT: 12%
  Percent injury 21 DAT: 9%
[2]; [18]
  Percent Injury 15 DAT: 8%
  Percent injury 21 DAT: 6%
[2]; [19]
  Percent Injury 14 DAT: 78%
  Percent injury 21 DAT: 49%
[2]; [20]
  Percent Injury 15 DAT: 36%
  Percent injury 21 DAT: 41%
[2]; in vivo
  Tolerance to icafolin: unexpected tolerance
  injury: less than 30%
[3]; CYP21, overall
  Tolerance to icafolin: good tolerance (an injury rating of less than 20% indicates good tolerance)
[3]; [21]
  Percent Injury 14 DAT: 2.5%
  Percent injury 21 DAT: 5.0%
[3]; [22]
  Percent Injury 14 DAT: 50%
  Percent injury 21 DAT: 37.5%
[3]; [23]
  Percent Injury 14 DAT: 7.5%
  Percent injury 21 DAT: 5.0%
[3]; [24]
  Percent Injury 14 DAT: 72.5%
  Percent injury 21 DAT: 62.5%
[3]; CYP21 events, 5 g ai/ha
  injury: less than 10%
[3]; one CYP21 event, 25 g ai/ha
  injury: about 50%
[3]; the other CYP21 event, 25 g ai/ha
  injury: about 72%
[4]; 5 g ai/ha icafolin
  Percent Plant Injury (21 DAT): 8.7%
[4]; 5 g ai/ha, 21 DAT
  injury ratings: below 15%
[4]; 25 g ai/ha
  Tolerance to icafolin: Incomplete tolerance
[4]; 25 g ai/ha icafolin
  Percent Plant Injury (21 DAT): 31.9%
